The values that follow come from patent US10144737B2 (ETERNITY BIOSCIENCE INC., priority 2014, dated 2018).

In one assay the test system is TMD-8 cells. Nature of the assay: Cell proliferation assay (CellTiter-Glo), TMD-8 cells. In kind it is cell-based. The settings on record: Homo sapiens, TMD8, 120 h, 5-day treatment, read-out: TMD8 cell growth (GI50 μM). On the procedure: Cell proliferation assay: TMD-8 and SU-DHL-1 cells were maintained at 37° C. in a humidified atmosphere with 5% CO2 in the recommended medium and serum concentrations. For cell proliferation assay, cells were seeded in 96-well pates at a density of 5,000 to 10,000 cells per well and cultured overnight at 37° C. in recommended medium supplemented with 5-10% FBS. On the next day, the test articles at various concentrations or vehicle control (0.5% DMSO) were added into cell culture. After 5-day treatment, the growth of cells was assayed by the CellTiter-Glo® Luminestceaent Cell Viability Assay (Promega). IC50 values were calculated using GraphPad Prism by plotting the logarithm of the concentration versus percent inhibition of cell growth as compared with the vehicle control.
(In general: ATP-based viability assays read luminescence as a measure of living cells.)

The target in the next assay is T1, Btk (Homo sapiens, UniProt Q06187).
T1 construct: purchased Promega (Madison, Wis.)
T1 sequence (Q06187 whole entry): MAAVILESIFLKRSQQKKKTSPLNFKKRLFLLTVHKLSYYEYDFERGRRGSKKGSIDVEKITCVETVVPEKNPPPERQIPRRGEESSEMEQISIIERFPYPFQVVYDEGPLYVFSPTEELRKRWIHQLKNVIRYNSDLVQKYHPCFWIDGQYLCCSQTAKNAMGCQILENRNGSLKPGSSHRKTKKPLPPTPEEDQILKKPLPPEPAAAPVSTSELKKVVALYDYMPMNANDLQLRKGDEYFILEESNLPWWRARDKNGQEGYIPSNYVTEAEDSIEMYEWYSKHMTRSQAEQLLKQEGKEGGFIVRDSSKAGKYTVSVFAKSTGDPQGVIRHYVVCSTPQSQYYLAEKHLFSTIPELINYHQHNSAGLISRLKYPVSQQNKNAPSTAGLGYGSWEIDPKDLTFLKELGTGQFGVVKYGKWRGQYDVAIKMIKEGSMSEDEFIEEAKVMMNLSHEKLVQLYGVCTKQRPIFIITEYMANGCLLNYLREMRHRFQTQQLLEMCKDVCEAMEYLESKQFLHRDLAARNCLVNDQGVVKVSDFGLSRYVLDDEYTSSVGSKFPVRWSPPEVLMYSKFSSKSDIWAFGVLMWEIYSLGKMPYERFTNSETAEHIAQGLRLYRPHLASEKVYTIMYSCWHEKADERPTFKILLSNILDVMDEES
Nature of the assay: Btk kinase assay (ADP-Glo). Particulars: ADP-Glo Btk kinase assay kit; ATP 1.2 μM; 60 minutes at room temperature. It counts as biochemical. On the procedure: Btk kinase assay—The Btk kinase assay was performed using a ADP-Glo Btk kinase assay kit purchased from Promega (Madison, Wis.). The assay was conducted according to the protocols provided in the assay kit. In brief, the enzyme reaction was carried out in the kinase reaction buffer containing Btk (2 ng/μl), ATP (1.2 μM), poly GT peptide (0.3 μM), DTT (40 nM), MnCl2 (1.4 mM), and 1 xkinase buffer (included in the kit) in the presence or absence of the tested articles at various concentrations in 384-well plate at room temperature (22±1° C.) for 60 minutes. The final reaction volume for each reaction was 10 μl. Then, 4 μl of ADP-Glo reagent (included in the kit) was added into the reaction and the plate was further incubated for another 40 minutes to terminate the reaction and deplete the remaining ATP. Finally, 10 μl of the kinase detection reagent was added into each reaction to simultaneously convert ADP to ATP and allow the newly synthesized ATP to be measured by a plate-reading luminometer (Victor X5 2030 multilabel reader, PerkinElmer). IC50 value was calculated using appropriate programs in GraphPad Prism by plotting the logarithm of the concentration versus percent inhibition as compared with a vehicle (DMSO) control.

The structures appear in SMILES notation. Some results are limits rather than exact numbers.

Take `COc1cccc(OCC#Cc2nc3c(NC4CCN(C(=O)/C=C/CN(C)C)C4)ncnc3[nH]2)c1` (centres unmarked) [Example 29, (E)-1-(3-((8-(3-(3-methoxyphenoxy)prop-1-yn-1-yl)-9H-purin-6-yl)amino)pyrrolidin-1-yl)-4-(dimethylamino)but-2-en-1-one]: the GI50 – broadly, the concentration giving 50% growth inhibition – in the assay with TMD-8 cells turned out to be 1.21 µM. Also, the IC50 (in general, the concentration at which inhibition is half-maximal) at Btk was 0.7 nM.
For the compound `CN(C)C/C=C/C(=O)N1CC[C@@H](Nc2ncnc3[nH]c(C#CCOc4ccccc4F)cc23)C1` [Example 49, (R,E)-1-(3-((6-(3-(2-fluorophenoxy)prop-1-yn-1-yl)-7H-pyrrolo[2,3-d]pyrimidin-4-yl)amino)pyrrolidin-1-yl)-4-(dimethylamino)but-2-en-1-one], in the assay with TMD-8 cells, the GI50 amounted to 0.017 µM. On Btk, this compound returned an IC50 of less than 0.03 nM.
On to `CN(C)C/C=C/C(=O)N1CC[C@@H](Nc2ncnc3[nH]c(C#CCOc4ccccc4)cc23)C1` [Example 41, (R,E)-4-(dimethylamino)-1-(3-((6-(3-phenoxyprop-1-yn-1-yl)-7H-pyrrolo[2,3-d]pyrimidin-4-yl)amino)pyrrolidin-1-yl)but-2-en-1-one], for which the concentration for 50% growth inhibition (GI50) in the assay with TMD-8 cells worked out at 0.069 µM. Further, the IC50 on Btk is 0.08 nM.
On to `CN(C)C/C=C/C(=O)N1CC[C@@H](Nc2ncnc3[nH]c(C#CCOc4ccccc4Cl)cc23)C1` [Example 44, (R,E)-1-(3-((6-(3-(2-chlorophenoxy)prop-1-yn-1-yl)-7H-pyrrolo[2,3-d]pyrimidin-4-yl)amino)pyrrolidin-1-yl)-4-(dimethylamino)but-2-en-1-one], for which the 50% growth inhibitory concentration (GI50) in the assay on TMD-8 cells stood at 0.012 µM. At Btk, this compound showed an IC50 of 0.11 nM.
For `C=CC(=O)N1CCN(c2ncnc3[nH]c(C#CCOc4ccccc4)cc23)CC1` [Example 1, 1-(4-(6-(3-phenoxyprop-1-yn-1-yl)-7H-pyrrolo[2,3-d]pyrimidin-4-yl)piperazin-1-yl)prop-2-en-1-one], the GI50 in the assay on TMD-8 cells is 0.054 µM. In addition, it took 109 nM to reach half-maximal inhibition against Btk (IC50).
The matching figures for `C=CC(=O)N1CCN(c2ncnc3[nH]c(C#CCOC)cc23)CC1` [Example 5, 1-(4-(6-(3-methoxyprop-1-yn-1-yl)-7H-pyrrolo[2,3-d]pyrimidin-4-yl)piperazin-1-yl)prop-2-en-1-one]: 1.66 µM and 257 nM.
The matching figures for `O=C(/C=C/CN1CCCC1)N1CCC(Nc2ncnc3[nH]c(C#CCOc4ccccc4)nc23)C1` (centres unmarked) [Example 12, (E)-1-(3-((8-(3-phenoxyprop-1-yn-1-yl)-9H-purin-6-yl)amino)pyrrolidin-1-yl)-4-(pyrrolidin-1-yl)but-2-en-1-one]: 1.3 µM and 0.3 nM.
The matching figures for `C=CC(=O)N1CCC(Nc2ncnc3[nH]c(C#CCOc4cccc(Cl)c4)nc23)C1` (centres unmarked) [Example 13, 1-(3-((8-(3-(3-chlorophenoxy)prop-1-yn-1-yl)-9H-purin-6-yl)amino)pyrrolidin-1-yl)prop-2-en-1-one]: 0.019 µM and 1.9 nM.
Turning to `C=CC(=O)N1CC[C@@H](Nc2ncnc3[nH]c(C#Cc4ccccc4OC)cc23)C1` [Example 59, (R)-1-(3-((6-((2-methoxyphenyl)ethynyl)-7H-pyrrolo[2,3-d]pyrimidin-4-yl)amino)pyrrolidin-1-yl)prop-2-en-1-one], the concentration for 50% growth inhibition (GI50) in the assay with TMD-8 cells was determined as 1.97 µM. The same compound displayed an IC50 on Btk of 742 nM.
Consider `C=CC(=O)N1CC[C@@H](Nc2ncnc3[nH]c(C#Cc4cccs4)cc23)C1` [Example 75, (R)-1-(3-((6-(thiophen-2-ylethynyl)-7H-pyrrolo[2,3-d]pyrimidin-4-yl)amino)pyrrolidin-1-yl)prop-2-en-1-one], for which the GI50 with TMD-8 cells came to 0.0049 µM. In addition, inhibition at Btk was half-maximal at 30 nM (IC50).
`CNC/C=C/C(=O)N1CCC(Nc2ncnc3[nH]c(C#CCOc4ccccc4)cc23)C1` (centres unmarked) [Example 35]: the GI50 in the assay on TMD-8 cells came out at 0.95 µM. This compound also yielded a half-maximal inhibitory concentration (IC50) on Btk of 0.4 nM.
The matching figures for `C=CC(=O)N1CC[C@@H](Nc2ncnc3[nH]c(C#Cc4ccc(Cl)c(Cl)c4)cc23)C1` [Example 64, (R)-1-(3-((6-((3,4-dichlorophenyl)ethynyl)-7H-pyrrolo[2,3-d]pyrimidin-4-yl)amino)pyrrolidin-1-yl)prop-2-en-1-one]: 0.005 µM and 0.2 nM.
With `C=CC(=O)N1CC[C@@H](Nc2ncnc3[nH]c(C#Cc4cccc(Cl)c4)cc23)C1` [Example 57, (R)-1-(3-((6-((3-chlorophenyl)ethynyl)-7H-pyrrolo[2,3-d]pyrimidin-4-yl)amino)pyrrolidin-1-yl)prop-2-en-1-one], the GI50 in the assay on TMD-8 cells worked out at 0.01 µM. Besides, on Btk, the IC50 turned out to be 24 nM.
The matching figures for `C=CC(=O)N1CC[C@@H](Nc2ncnc3[nH]c(C#CCOc4c(F)cccc4F)cc23)C1` [Example 90, (R)-1-(3-((6-(3-(2,6-difluorophenoxy)prop-1-yn-1-yl)-7H-pyrrolo[2,3-d]pyrimidin-4-yl)amino)pyrrolidin-1-yl)prop-2-en-1-one]: 0.014 µM and 14 nM.
The matching figures for `C=CC(=O)N1CC[C@@H](Nc2ncnc3[nH]c(C#CCOc4cccc5sccc45)cc23)C1` [Example 89, (R)-1-(3-((6-(3-(benzo[b]thiophen-4-yloxy)prop-1-yn-1-yl)-7H-pyrrolo[2,3-d]pyrimidin-4-yl)amino)pyrrolidin-1-yl)prop-2-en-1-one]: 0.006 µM and 148 nM.
The matching figures for `C=CC(=O)N1CCC[C@@H](Nc2ncnc3[nH]c(C#Cc4ccc5c(c4)OCO5)cc23)C1` [Example 97, (R)-1-(3-((6-(benzo[d][1,3]dioxol-5-ylethynyl)-7H-pyrrolo[2,3-d]pyrimidin-4-yl)amino)piperidin-1-yl)prop-2-en-1-one]: 0.004 µM and 27 nM.
For `C=CC(=O)N1CC[C@@H](Nc2ncnc3[nH]c(C#CCOc4cccc(F)c4Cl)nc23)C1` [Example 100, (R)-1-(3-((8-(3-(2-chloro-3-fluorophenoxy)prop-1-yn-1-yl)-9H-purin-6-yl)amino)pyrrolidin-1-yl)prop-2-en-1-one], the GI50 with TMD-8 cells is 0.006 µM. Further, the 50% inhibitory concentration (IC50) against Btk stood at 32 nM.
The matching figures for `C=CC(=O)N1CC[C@@H](Nc2ncnc3[nH]c(C#Cc4ccc5ccccc5c4)cc23)C1` [Example 71, (R)-1-(3-((6-(naphthalen-2-ylethynyl)-7H-pyrrolo[2,3-d]pyrimidin-4-yl)amino)pyrrolidin-1-yl)prop-2-en-1-one]: 0.001 µM and 10 nM.
The matching figures for `O=C([C@H]1C[C@H]1F)N1CC[C@@H](Nc2ncnc3[nH]c(C#CCOc4ccccc4F)cc23)C1` [Example 94, ((1R,2R)-2-fluorocyclopropyl)((R)-3-((6-(3-(2-fluorophenoxy)prop-1-yn-1-yl)-7H-pyrrolo[2,3-d]pyrimidin-4-yl)amino)pyrrolidin-1-yl)methanone]: 3.58 µM and 346 nM.
The matching figures for `C=CC(=O)Nc1cccc(Nc2ncnc3[nH]c(C#Cc4ccc(Cl)cc4)cc23)c1` [Example 105, N-(3-((6-((4-chlorophenyl)ethynyl)-7H-pyrrolo[2,3-d]pyrimidin-4-yl)amino)phenyl)acrylamide]: 0.048 µM and 155 nM.
Take `C=CC(=O)N1CCC(Nc2ncnc3[nH]c(C#CCOc4ccccc4)nc23)C1` (centres unmarked) [Example 9, 1-(3-((8-(3-phenoxyprop-1-yn-1-yl)-9H-purin-6-yl)amino)pyrrolidin-1-yl)prop-2-en-1-one]: in the assay on TMD-8 cells, the GI50 was determined as 0.012 µM. For the same compound, the IC50 against Btk came out at 2.6 nM.
The matching figures for `C=CC(=O)N1CC[C@@H](Nc2ncnc3[nH]c(C#CCOc4cccc(F)c4F)nc23)C1` [Example 99, (R)-1-(3-((8-(3-(2,3-difluorophenoxy)prop-1-yn-1-yl)-9H-purin-6-yl)amino)pyrrolidin-1-yl)prop-2-en-1-one]: 0.001 µM and 0.3 nM.
In the case of `C=CC(=O)N1CC[C@@H](Nc2ncnc3[nH]c(C#Cc4cccc(C)c4)cc23)C1` [Example 69, (R)-1-(3-((6-((3-methylphenyl)ethynyl)-7H-pyrrolo[2,3-d]pyrimidin-4-yl)amino)pyrrolidin-1-yl)prop-2-en-1-one], in the assay on TMD-8 cells, the concentration for 50% growth inhibition (GI50) turned out to be 0.007 µM. Further, on Btk, half-maximal inhibition (IC50) required 182 nM.
Turning to `C=CC(=O)N1CCC(Nc2ncnc3[nH]c(C#CCOc4ccccc4OC)nc23)C1` (centres unmarked) [Example 25, 1-(3-((8-(3-(2-methoxyphenoxy)prop-1-yn-1-yl)-9H-purin-6-yl)amino)pyrrolidin-1-yl)prop-2-en-1-one], in the assay with TMD-8 cells, the concentration for 50% growth inhibition (GI50) was determined as 0.006 µM. Moreover, the IC50 against Btk was determined as 1 nM.
The matching figures for `C=CC(=O)N1CC[C@@H](Nc2ncnc3[nH]c(C#Cc4ccccc4F)cc23)C1` [Example 51, (R)-1-(3-((6-((2-fluorophenyl)ethynyl)-7H-pyrrolo[2,3-d]pyrimidin-4-yl)amino)pyrrolidin-1-yl)prop-2-en-1-one]: 0.016 µM and 18 nM.
